Tests used:
[1] = test system: expanded cord blood CD34+ cells, lymphoid progenitors; test: Lymphoid Progenitor Differentiation Culture after Expansion Culture (Example 41); format: cell-based, human; details: for Fold Enhancement (vs. unexpanded) of CD10+ lineage output: 14 days Lymphoid Differentiation Culture
Excerpt: Lymphoid Progenitor Differentiation Cultures (L Diff Cultures) were initiated prior to culture in +Formula I (Day 1 L Diff Culture), following 14 days of culture in +Formula I (14-day +Formula I-expanded L Diff Culture), following 14 days of culture in control conditions (14-day DMSO-expanded L Diff Culture) or following 21 days of culture in +Formula I (21-day +Formula I-expanded L Diff Culture).
12-well non-TC-treated plates were coated with StemSpan Lymphoid Differentiation Coating Material (STEMCELL Technologies) by incubation for two hours at room temperature. Immediately prior to initiation of L Diff Culture, wells were washed with PBS.
Purified CD34+ cells were plated at 20,000 cells per well, in Lymphoid Progenitor Expansion Medium (“LPEM”), comprising StemSpan SFEM II medium (STEMCELL Technologies) with StemSpan Lymphoid Progenitor Expansion Supplement (STEMCELL Technologies). Cells were plated in duplicate, in 500 μl/well, then placed in a humidified incubator at atmospheric oxygen and 5% CO2. Exact cell numbers dispensed per well were quantified with flow cytometry for later calculations.
On days three or five, an additional 500 μl/well of LPEM was added, then on days seven and eleven, half of the media was removed and replaced with fresh LPEM.
At seven and fourteen days, cells were analyzed via flow cytometry to quantify lymphoid lineage phenotypes of CD7+/CD5−, CD5+/CD7− and CD7+/CD5+, as well as presence of maturing B cells (CD19+), T cells (CD3+) or NK cells (CD56+).
“Per-Assayed-CD34+ Cell Output” describes the output of differentiated cells per CD34+ cell placed into Differentiation Culture, and is calculated by dividing the Corrected Count of lineage-positive cells by the number of CD34+ cells placed into quantified at Differentiation Culture initiation following 1, 14, 28, 42 or 64 days in Expansion Culture.
“Scaled Output” (or Scaled Output per CD34+ cell) describes the number of differentiated cells of a given lineage that may be produced from a single CD34+ cell following both Expansion Cell Culture (if expanded) followed by Differentiation Culture. This quantity is calculated by multiplying Per-Assayed-CD34+ Cell Output by the Fold Expansion of CD34+ cells from day 1 to the day of Differentiation Culture initiation (day 14, 28, 42 or 64). This quantity is synonymous with “per-expanded-dl-CD34+ cell output” used in Example 38 above.
“Fold Enhancement (vs. unexpanded)” was calculated to fully capture the benefit of Expansion Culture in +Formula I Conditions prior to Differentiation Culture. This quantity was calculated by dividing the Scaled Output output of a given cell population by the Per-Assayed-CD34+ Cell Output of that population from unexpanded cells placed into differentiation culture, as in the equation below. Each fold increase was calculated relative to the same number of days in differentiation culture, e.g. the fold increase of cells differentiated for six days was calculated by dividing the scaled output of expanded cells differentiated for six days by the output of unexpanded cells differentiated for six days. In the case of cells differentiated for 14 days, an exact match in unexpanded cells was not available, so output at differentiation day 13 was used as a denominator.

[2] = test system: CD3+ and CD3+/CD8+ T cells; test: T-cell Maturation and CD8 Maturation Culture (Example 41); format: cell-based, human
Protocol: Following 14 days in Lymphoid Progenitor Differentiation Cultures, cells were placed into T- and NK-cell Maturation Cultures.
For T-cell Maturation Cultures, 24-well non-TC-treated plates were coated with StemSpan Lymphoid Differentiation Coating Material (STEMCELL Technologies) according to the manufacturer's instructions. Immediately prior to initiation of T-cell Maturation Culture, wells were washed with PBS. Cells from L Diff Cultures were plated at 50,000 cells/well in 500 μl of T Cell Progenitor Maturation Medium, comprising StemSpan SFEM II medium with StemSpan T Cell Progenitor Maturation Supplement.
Following 4 days of culture, NK- and T-cell Maturation Cultures' medias were replenished by adding an equal volume of the same culture media added on day 14. At days 21 and 25 of NK- or T-cell Maturation Cultures, half-media changes were performed by removing half of the total volume of media without disturbing cells and adding media freshly prepared as on day 14.
Following 7 and 14 days in NK- and T-cell Maturation Culture (21 and 28 days from initiation of Lymphoid Differentiation Culture, respectively), cells were stained with antibodies to CD56, CD3, CD161, CD94, and CD16 and analyzed via flow cytometry to quantify T and NK lineage phenotypes.
T-cell Maturation Cultures were continued for an additional 14 days, plated at 50,000-75,000 cells/well into 24-well non-TC-treated plates freshly coated with Lymphoid Differentiation Coating Material as above. Cultures were continued for this 14 day-period with half-media changes every 3-4 days.
Following a total of 42 days in Lymphoid Progenitor Differentiation and T-cell Maturation cultures, T cells from 14-day+Formula I-expanded L Diff Culture and 14-day DMSO-expanded L Diff Culture were placed into CD8 Maturation Culture as follows: A 24-well plate was coated with Lymphocyte Differentiation Coating Medium as above. […] Following 6 days in this maturation medium, cells were analyzed for mature T cell phenotypes by staining for CD3, CD8a, CD4, CD56 and performing flow cytometry on an Attune N×T flow cytometer. […]

[3] = 14 days in +Formula I Expansion Culture
[4] = 21 days in +Formula I Expansion Culture
[5] = CD8, Lymphoid Diff day 49, +Formula I-expanded CD34+ cells

CC(C)(C)C(=O)Nc1ccc2c(c1)C(O)c1ccccc1-2 (centres unmarked) [Compound 1.010]
Fold Enhancement (vs. unexpanded) of CD7+/CD5+ lineage output [1, 3]: 5.8 fold
Fold Enhancement (vs. unexpanded) of CD7+/CD5− lineage output [1, 3]: 6.3 fold
Fold Enhancement (vs. unexpanded) of CD7−/CD5+ lineage output [1, 3]: 11 fold
Fold Enhancement (vs. unexpanded) of CD10+ lineage output [1, 3]: 5 fold
Fold Enhancement (vs. unexpanded) of CD7+/CD5+ lineage output [1, 4]: 238 fold
Fold Enhancement (vs. unexpanded) of CD7+/CD5− lineage output [1, 4]: 46 fold
Fold Enhancement (vs. unexpanded) of CD7−/CD5+ lineage output [1, 4]: 180 fold
Fold Enhancement (vs. unexpanded) of CD10+ lineage output [1, 4]: 37 fold
% Mature cells: CD4+/CD8α+ of Live/CD3+/CD56− [2, 5]: 0.5%
% Mature cells: CD4−/CD8α+ of Live/CD3+/CD56− [2, 5]: 95%
CD8a+ cells, of CD3+ cells ([2]; CD34+ cells first expanded for 14 days in +Formula I conditions): 95%
